Measurements: patent US20110166132A1, “Gamma Secretase Modulators” (Amgen Inc., priority 2007, published 2011)

Target: T1, gamma secretase (Homo sapiens, UniProt P49768)
T1 construct: HEK293 cells stably expressing full length Amyloid Precursor Protein (APP); endogenous in cells; host or cells: HEK 293 cells stably expressing full length APP
Assay: GSM cell-based assay: Aβ 42 inhibition or reduction in HEK 293 cells over-expressing APP (sandwich ELISA)
Conditions: approximate IC50; HEK293 cells stably expressing full length APP, 24 hours incubation, 10-point dose response starting at 10 μM
Description: GSM cell-based assays were designed to measure the modulation of Aβ 42 from HEK 293 cells over-expressing APP.
Three simultaneous cell-based assays, namely Aβ 42 inhibition or reduction, Aβ 40 inhibition or reduction and a measurement of cell viability of the cells from which the Aβ 42/40 readout was obtained, together gave an interpretation of gamma secretase modulation (GSM). The assays measure Aβ 42 and Ab 40 from conditioned medium of test compound treated HEK 293 cells.
HEK293 cells stably expressing full length Amyloid Precursor Protein (APP) were plated at a density of 100K cells/well in 96 well plates (Costar). The cells were cultivated for 6 hours at 37° C. and 5% CO2 in DMEM supplemented with 10% FBS. The test compounds were then added to cells in 10-point dose response concentrations with the starting concentration being 10 μM. The compounds were diluted from stock solutions in DMSO and the final DMSO concentration of the test compounds on cells was 0.1%. After 24 hours of incubation with the test compounds the supernatant conditioned media was collected and the Aβ 42, Aβ 40 levels were determined using a sandwich ELISA. A cell viability test (CellTiter-Blue Cell Viability assay, Promega) on the cells from which the conditioned medium was harvested for Aβ 42 or Aβ 40 readouts gave an indication of cell survivability as a possible reason for false positive Aβ 42 or 40 reduction or inhibition readout. The IC50 of the compound (for either Aβ 42 or Aβ 40) was calculated from the percent of control or percent inhibition of Aβ 42 or Aβ 40 as a function of the concentration of the test compound.
The sandwich ELISA to detect Aβ 42 or Aβ 40 was performed in 96 well microtiter plates, which were pre-treated with goat anti-rabbit IgG (Pierce). The capture and detecting antibody pair that were used to detect Aβ 42 and Aβ 40 from cell supernatants were rabbit monoclonal Antibody 42 (RabMAb 42) and affinity purified polyclonal Antibody 40 pAB40 (Biosource) as capture antibodies and biotinylated 6E10 (Signet Labs Inc.) as detection antibody. The optimal concentration for RabMAb 42 was 1 μg/ml in Superblock/TBS (Pierce) that was supplemented with 0.05% Tween 20 (Sigma). The optimal concentration for the pAb40 antibody was 3 μg/ml in Superblock/TBS (Pierce) that was supplemented with 0.05% Tween 20 (Sigma). Optimal concentration for the detection antibody 6E10-biotinylated was 0.5 μg/ml in Superblock/TBS (Pierce) that had been supplemented with 2% normal goat serum and 2% normal mouse serum.
Cellular supernatants were incubated with the capture antibody for 16-20 hours at 4° C., followed by 3 wash steps in TBS-tween (0.05%). The detecting antibody incubation was for 3 hours at 4° C., again followed by the wash steps as described previously. The final readout of the ELISA is Time-Resolved Fluorescence (counts per minute) using Delfia reagents Streptavidin-Europium and Enhancement solutions (Perkin Elmer) and the EnVision Multilabel plate reader (Perkin Elmer).

IC50 [nM] | SMILES
191 | Cc1cc(-c2ccc(NC(=O)[C@H](CC(C)C)c3ccc(-c4ccc(N5CCOCC5)cc4)cc3)cc2)ccn1 [Cpd 131, (2R)-4-methyl-N-(4-(2-methyl-4-pyridinyl)-phenyl)-2-(4′-(4-morpholinyl)-4-biphenylyl)pentanamide]
242 | Cc1cc(-c2ccc(NC(=O)C(CC(C)C)c3ccc(N4CCCCC4)cc3)cc2)ccn1 (centres unmarked) [Cpd 134, 4-methyl-N-(4-(2-methyl-4-pyridinyl)-phenyl)-2-(4-(1-piperidinyl)phenyl)-pentanamide]
154 | Cc1cc(-c2ccc(NC(=O)C(C)c3cccc(-c4ccc(N5CCOCC5)nc4)c3)cc2)ccn1 (centres unmarked) [Cpd 135, N-(4-(2-methyl-4-pyridinyl)phenyl)-2-(3-(6-(4-morpholinyl)-3-pyridinyl)phenyl)-propanamide]
> 10000 | Cc1cc(-c2ccc(NC(=O)C(C)c3cccc(N4CCN(C)CC4)c3)cc2)ccn1 (centres unmarked) [Cpd 138]
166 | Cc1cc(-c2ccc(NC(=O)C(C)c3cccc(N4CCN(c5ccccn5)CC4)c3)cc2)ccn1 (centres unmarked) [Cpd 139, N-(4-(2-methyl-4-pyridinyl)phenyl)-2-(3-(4-(2-pyridinyl)-1-piperazinyl)phenyl)-propanamide]
> 10000 | Cc1cc(-c2ccc(NC(=O)C(C)c3cccc(C4CCN(CCO)CC4)c3)cc2)ccn1 (centres unmarked) [Cpd 140]
8570 | Cc1cc(-c2ccc(NC(=O)C(C)c3cccc(N4CCOCC4)n3)cc2)ccn1 (centres unmarked) [Cpd 141]
1050 | CSc1cccc(C(C)C(=O)Nc2ccc(-c3ccnc(C)c3)cc2)c1 (centres unmarked) [Cpd 142, N-(4-(2-methyl-4-pyridinyl)phenyl)-2-(3-(methylsulfanyl)phenyl)propanamide]
485 | COc1cc(NC(=O)C(C)c2cccc(Br)c2)ccc1-c1ccnc(C)c1 (centres unmarked) [Cpd 143]
> 10000 | Cc1cc(-c2ccc(NC(=O)C(CC(C)C)c3cccc(S(C)(=O)=O)c3)cc2)ccn1 (centres unmarked) [Cpd 145]
116 | Cc1cc(-c2ccc(NC(=O)C(C)c3cccc(-c4ccc(N(C)C)cc4)c3)cc2)ccn1 (centres unmarked) [Cpd 147, 2-(4'-(dimethylamino)-3-biphenylyl)-N-(4-(2-methyl-4-pyridinyl)phenyl)propanamide]
582 | Cc1cc(-c2ccc(NC(=O)C(C)n3cnc(-c4ccccc4)c3)cc2)ccn1 (centres unmarked) [Cpd 151, N-(4-(2-methyl-4-pyridinyl)phenyl)-2-(4-phenyl-1H-imidazol-1-yl)propanamide]
216 | Cc1cc(-c2ccc(NC(=O)C(C)c3cccc(-c4cccc(C#N)c4)c3)cc2)ccn1 (centres unmarked) [Cpd 154, 2-(3′-cyano-3-biphenylyl)-N-(4-(2-methyl-4-pyridinyl)phenyl)propanamide]
246 | COc1ncc(-c2cccc(C(C)C(=O)Nc3ccc(-c4ccnc(C)c4)cc3)c2)cn1 (centres unmarked) [Cpd 156, 2-(3-(2-methoxy-5-pyrimidinyl)phenyl)-N-(4-(2-methyl-4-pyridinyl)phenyl)-propanamide]
256 | Cc1cc(-c2ccc(NC(=O)C(C)c3cccc(-c4ccc(C(=O)N(C)C)cc4)c3)cc2)ccn1 (centres unmarked) [Cpd 157]
139 | CC(=O)c1ccc(-c2cccc(C(C)C(=O)Nc3ccc(-c4ccnc(C)c4)cc3)c2)cc1 (centres unmarked) [Cpd 158, 2-(4′-acetyl-3-biphenylyl)-N-(4-(2-methyl-4-pyridinyl)phenyl)propanamide]
> 10000 | Cc1cc(-c2ccc(NC(=O)C(C)c3cccc(Br)c3)c(C#N)c2)ccn1 (centres unmarked) [Cpd 161, 2-(3-bromophenyl)-N-(2-cyano-4-(2-methyl-4-pyridinyl)phenyl)propanamide]
184 | Cc1cc(-c2ccc(NC(=O)C(CC3CC3)c3cccc(Br)c3)cc2)ccn1 (centres unmarked) [Cpd 163, 2-(3-bromophenyl)-3-cyclopropyl-N-(4-(2-methyl-4-pyridinyl)phenyl)propanamide]
1160 | Cc1cc(-c2ccc(NC(=O)C(C)c3cccc(Nc4ccccc4)c3)cc2)ccn1 (centres unmarked) [Cpd 165, N-(4-(2-methyl-4-pyridinyl)phenyl)-2-(3-(phenylamino)phenyl)propanamide]
2840 | COCCNc1cccc(C(C)C(=O)Nc2ccc(-c3ccnc(C)c3)cc2)c1 (centres unmarked) [Cpd 166]
> 10000 | Cc1cc(-c2ccc(NC(=O)[C@H]3CCCN3C(=O)OC(C)(C)C)cc2)ccn1 [Cpd 168]
2480 | Cc1cc(-c2ccc(NC(=O)C(C)c3ccc(NCC4CC4)cc3)cc2)ccn1 (centres unmarked) [Cpd 171, 2-(4-((cyclopropylmethyl)amino)phenyl)-N-(4-(2-methyl-4-pyridinyl)phenyl)-propanamide]
540 | Cc1cc(-c2ccc(NC(=O)C(C)c3ccc(N(CC4CC4)CC4CC4)cc3)cc2)ccn1 (centres unmarked) [Cpd 172]
> 10000 | Cc1cc(-c2ccc(NC(=O)C(CC(C)C)C3CCOCC3)cc2)ccn1 (centres unmarked) [Cpd 173]

IC50 [nM] | SMILES
1270 | Cc1cc(-c2ccc(NC(=O)C(C)c3cccc(-c4ccsc4)c3)cc2)ccn1 (centres unmarked) [Cpd 174, N-(4-(2-methyl-4-pyridinyl)phenyl)-2-(3-(3-thiophenyl)phenyl)propanamide]
367 | Cc1cc(-c2ccc(NC(=O)[C@H](CC3CC3)c3cccc(Br)c3)cc2)ccn1 [Cpd 180, (2R)-2-(3-bromophenyl)-3-cyclopropyl-N-(4-(2-methyl-4-pyridinyl)phenyl)-propanamide]
> 10000 | COCCNc1cccc(C(CC(C)C)C(=O)Nc2ccc(-c3ccnc(C)c3)cc2)n1 (centres unmarked) [Cpd 182, 2-(6-((2-methoxyethyl)amino)-2-pyridinyl)-4-methyl-N-(4-(2-methyl-4-pyridinyl)-phenyl)pentanamide]
827 | Cc1cc(-c2ccc(NC(=O)C(C)c3cccc(-c4csc(N5CCOCC5)n4)c3)cc2)ccn1 (centres unmarked) [Cpd 183]
1090 | Cc1cc(-c2ccc(NC(=O)C3CC3(C)C)cc2)ccn1 (centres unmarked) [Cpd 184]
910 | Cc1cc(-c2ccc(NC(=O)C3CC3(F)F)cc2)ccn1 (centres unmarked) [Cpd 185]
> 10000 | Cc1cc(-c2ccc(NC(=O)C3CC34CCC4)cc2)ccn1 (centres unmarked) [Cpd 186]
2590 | Cc1cc(-c2ccc(NC(=O)C(C)c3ccc(NC4CCOCC4)cc3)cc2)ccn1 (centres unmarked) [Cpd 188, N-(4-(2-methyl-4-pyridinyl)phenyl)-2-(4-(tetrahydro-2H-pyran-4-ylamino)phenyl)-propanamide]
349 | Cc1cc(-c2ccc(NC(=O)[C@H](CC(C)C)c3cc(F)cc(F)c3)cc2)ccn1 [Cpd 190]
179 | COc1cc(NC(=O)C(C)c2cccc(-c3ccc(N4CCOCC4)cc3)c2)ccc1-c1ccnc(C)c1 (centres unmarked) [Cpd 191]
1050 | CCC(C(=O)Nc1ccc(-c2ccnc(C)c2)cc1)c1cccc(C)c1 (centres unmarked) [Cpd 200, 2-(3-methylphenyl)-N-(4-(2-methyl-4-pyridinyl)phenyl)butanamide]
135 | Cc1cc(-c2ccc(NC(=O)C(CC(C)C)c3cccc(-c4ccc(N5CCN(C(=O)OC(C)(C)C)CC5)cc4)c3)cc2)ccn1 (centres unmarked) [Cpd 228, tert-butyl 4-(3′-(3-methyl-1-((4-(2-methyl-4-pyridinyl)phenyl)carbamoyl)butyl)-4-biphenylyl)-1-piperazinecarboxylate]
> 10000 | Cc1cc(-c2ccc(NC(=O)c3cccc(C#N)c3)cc2)ccn1 [Cpd 275]
> 10000 | Cc1cc(-c2ccc(NC(=O)c3cccc(C(F)(F)F)c3)cc2)ccn1 [Cpd 279]
> 10000 | Cc1cc(-c2ccc(NC(=O)c3ccc(-c4ccccc4)cc3)cc2)ccn1 [Cpd 280]
> 10000 | COc1cc(C(=O)Nc2ccc(-c3ccnc(C)c3)cc2)ccc1C [Cpd 282]
6710 | Cc1cc(-c2ccc(NC(=O)c3cccc4c3oc3ccccc34)cc2)ccn1 [Cpd 286]
1770 | Cc1cc(-c2ccc(NC(=O)C3(c4ccccc4F)CC3)cc2)ccn1 [Cpd 288]
> 10000 | Cc1cc(-c2ccc(NC(=O)[C@@H](C)c3cc(C(F)(F)F)cc(C(F)(F)F)c3)cc2)ccn1 [Cpd 290, (2S)-2-(3,5-bis(trifluoromethyl)phenyl)-N-(4-(2-methyl-4-pyridinyl)phenyl)-propanamide]
> 10000 | Cc1cc(-c2ccc(NC(=O)c3cn4cc(Cl)ccc4n3)cc2)ccn1 [Cpd 300]
5540 | Cc1cc(-c2ccc(NC(=O)c3cc4ccccc4n3C)cc2)ccn1 [Cpd 305]
> 10000 | Cc1cc(-c2ccc(NC(=O)C3CC(=O)N(c4ccc(Cl)cc4)C3)cc2)ccn1 (centres unmarked) [Cpd 308]
573 | Cc1cc(-c2ccc(NC(=O)C3(c4ccc(Cl)cc4)CCC3)cc2)ccn1 [Cpd 310]
